Measured values from patent US20210371388A1, “Bicyclic Carboxamide with Exocyclic Urea Derivatives as Antivirals for the Treatment of HBV Infection” (Baruch S. Blumberg Institute, priority 2020, published 2021).

The compounds below were run on HBV replication in AML12HBV10 cells (assay: Antiviral efficacy: HBV DNA in AML12HBV10 cell lysates by dot-blot hybridization). Details: Hepatitis B virus, AML12HBV10, 48 h, read-out: Antiviral activity (EC50), AML12HBV10 cells, 48 hours treatment, concentration that reduces the amount of HBV DNA by 50%.
Assay type: cell-based
Method: The antiviral efficacy of the compounds of the disclosure, as presented in Table 2, were determined in AML12HBV10 cells. AML12HBV10 is an immortalized murine hepatocyte (AML12)-derived stable cell line that supports robust HBV replication in a tetracycline inducible manner (Xu et al.). The cells were seeded into 96 well plates at a density of 2×10^4 cells per well and cultured in DMEM/F12 media with 10% fetal bovine serum in the absence of tetracycline to allow pgRNA transcription and HBV DNA replication. One day after seeding, cells were left untreated or treated with a serial dilution of testing compounds, ranging from 50 μM to 0.39 μM, for 48 hours. Cells were then lysed by adding into each well of 100 μl lysis buffer containing 10 mM Tris-HCl (pH 7.6), 1 mM EDTA, 100 mM NaCl and 1% NP-40 and incubated at 37° C. for 30 minutes. Half amount (50 μλ) of cell lysate from each well was combined with equal volume of denaturing solution containing 0.5N NaOH and 1.5M NaCl. After 5 minute incubation, 100 μl of neutralization solution (1M Tris-HCl, pH 7.4, 1.5M NaCl) was added into each well. The denatured cell lysates (totally 200 μl) were applied onto Nylon membrane using 96-well dot-blot manifold (Biorad). HBV DNA in the cell lysates were determined by dot-blot hybridization with alpha-^32P-UTP-labelled riboprobe specific for HBV minus strand DNA. The antiviral efficacy of a compound of the disclosure was expressed as the concentration that reduces the amount of HBV DNA by 50% (EC50).

| Compound | EC50 [µM] |
| --- | --- |
| O=C1CCN(C(=O)Nc2ccc(F)c(Cl)c2)c2ccccc21 [Entry 1] | 1.32 |
| O=C1CCN(C(=O)Nc2ccc(F)c(Cl)c2)[C@H]2CCCC[C@H]12 [Entry 3] | 0.42 |
| O=C(Nc1ccc(F)c(Cl)c1)N1CCc2ccccc21 [Entry 4] | 0.36 |
| O=C(Nc1ccc(F)c(Cl)c1)N1CCOc2ccccc21 [Entry 5] | 0.52 |
| O=C(Nc1ccc(F)c(Cl)c1)N1CCCCc2ccccc21 [Entry 6] | 12.3 |
| O=C(Nc1ccc(F)c(Cl)c1)N1CCCc2ccccc21 [Entry 8] | 1.55 |
| O=C(Nc1ccc(F)c(Cl)c1)N1CCNc2ccccc21 [Entry 9] | 0.5 |
| O=C1CCCN(C(=O)Nc2ccc(F)c(Cl)c2)c2ccccc21 [Entry 10] | ≥ 10 |
| Cc1ccc2c(c1)CCN2C(=O)Nc1ccc(F)c(Cl)c1 [Entry 11] | 5.26 |
| O=C(Nc1ccc(F)c(Cl)c1)N1CCc2cc(F)c(F)cc21 [Entry 12] | 2.07 |
| O=C1CCN(C(=O)Nc2cc(F)c(F)c(F)c2)[C@H]2CCCC[C@@H]12 [Entry 13] | 2.41 |
| O=C1CCN(C(=O)Nc2cc(F)c(F)c(F)c2)[C@H]2CCCC[C@H]12 [Entry 14] | 3.46 |
| CC1(O)CCN(C(=O)Nc2ccc(F)c(Cl)c2)C2CCCCC21 (centres unmarked) [Entry 15] | 6.4 |
| O=C(Nc1cc(F)c(F)c(F)c1)N1CCC(O)C2CCCCC21 (centres unmarked) [Entry 19] | ≥ 10 |
| O=C1CCN(C(=O)Nc2cc(F)c(F)c(Cl)c2)C2CCCCC12 (centres unmarked) [Entry 20] | 2.4 |
| O=C(Nc1cc(F)c(F)c(F)c1)N1CCNc2ccccc21 [Entry 21] | 0.63 |
| O=C1CN(C(=O)Nc2cc(F)c(F)c(F)c2)c2ccccc2N1 [Entry 22] | ≥ 10 |
| O=C1CN(C(=O)Nc2ccc(F)c(Cl)c2)c2ccccc2N1 [Entry 23] | ≥ 10 |
| O=C(Nc1ccc(F)c(Cl)c1)N1CCN(CCCCF)c2ccccc21 [Entry 24] | ≥ 10 |
| O=C(Nc1cc(F)c(F)c(F)c1)N1CCN(CC(F)(F)F)c2ccccc21 [Entry 25] | ≥ 10 |
| O=C(Nc1cc(F)c(F)c(F)c1)N1CCN(CCC(F)(F)F)c2ccccc21 [Entry 26] | ≥ 10 |
| O=C(Nc1cc(F)c(F)c(F)c1)N1CCN(C(=O)c2ccccn2)c2ccccc21 [Entry 27] | ≥ 10 |
| O=C(Nc1cc(F)c(F)c(F)c1)N1CCN(C(=O)c2ccc(C(F)(F)F)cc2)c2ccccc21 [Entry 28] | ≥ 10 |
| CC(=O)N1CCN(C(=O)Nc2cc(F)c(F)c(F)c2)c2ccccc21 [Entry 29] | ≥ 10 |
| CC(C)(C)C(=O)N1CCN(C(=O)Nc2cc(F)c(F)c(F)c2)c2ccccc21 [Entry 30] | ≥ 10 |
| CC(C)C(=O)N1CCN(C(=O)Nc2cc(F)c(F)c(F)c2)c2ccccc21 [Entry 31] | 4.71 |
| O=C(Nc1cc(F)c(F)c(F)c1)N1CCN(C(=O)c2ccccc2)c2ccccc21 [Entry 32] | ≥ 10 |

| Compound | EC50 [µM] |
| --- | --- |
| O=C(Nc1cc(F)c(F)c(Cl)c1)N1CCNc2ccccc21 [Entry 33] | 0.93 |
| O=C(Nc1cc(F)c(F)c(F)c1)N1CCN(S(=O)(=O)c2ccccc2)c2ccccc21 [Entry 34] | ≥ 10 |
| CCCCOC(=O)N1CCN(C(=O)Nc2cc(F)c(F)c(F)c2)c2ccccc21 [Entry 35] | ≥ 10 |
| CC(C)COC(=O)N1CCN(C(=O)Nc2cc(F)c(F)c(F)c2)c2ccccc21 [Entry 36] | ≥ 10 |
| O=C(Nc1cc(F)c(F)c(F)c1)N1CCN(C(=O)OCc2ccccc2)c2ccccc21 [Entry 37] | ≥ 10 |
| O=C(Nc1cc(F)c(F)c(F)c1)N1CCNC2CCCCC21 (centres unmarked) [Entry 38] | ≥ 10 |
| O=C(Nc1ccc(F)c(Cl)c1)N1CCNC2CCCCC21 (centres unmarked) [Entry 40] | ≥ 10 |
| O=C(Nc1ccc(F)c(Cl)c1)N1CCOC2CCCCC21 (centres unmarked) [Entry 41] | ≥ 10 |
| O=C(Nc1ccc(F)c(Cl)c1)N1CCN(C(=O)Nc2ccc(F)c(Cl)c2)[C@H]2CCCC[C@@H]21 [Entry 42] | ≥ 10 |
| CC(C)(C)OC(=O)N1CCN(C(=O)Nc2ccc(F)c(Cl)c2)[C@H]2CCCC[C@@H]21 [Entry 43] | ≥ 10 |
| CC(C)(C)OC(=O)N1CCN(C(=O)Nc2ccc(F)c(Cl)c2)[C@@H]2CCCC[C@@H]21 [Entry 44] | ≥ 10 |
| O=C(Nc1ccc(F)c(Cl)c1)N1CCCC2CCCCC21 (centres unmarked) [Entry 46] | ≥ 10 |
| O=C(Nc1ccc(F)c(Cl)c1)N1CCN[C@H]2CCCC[C@H]21 [Entry 47] | ≥ 10 |
| O=C(Nc1ccc(F)c(Cl)c1)N1CCN(C(=O)Nc2ccc(F)c(Cl)c2)c2ccccc21 [Entry 48] | 0.75 |
| O=C(Nc1ccc(F)c(Cl)c1)N1CC2(CCCC2)Nc2ccccc21 [Entry 49] | ≥ 10 |
| CC1(C)CN(C(=O)Nc2ccc(F)c(Cl)c2)c2ccccc2N1 [Entry 50] | ≥ 10 |
| CC1CN(C(=O)Nc2ccc(F)c(Cl)c2)c2ccccc2N1 (centres unmarked) [Entry 51] | ≥ 10 |
| O=C(Nc1ccc(F)c(Cl)c1)N1CC(c2ccccc2)Nc2ccccc21 (centres unmarked) [Entry 52] | ≥ 10 |
| O=C(Nc1ccc(F)c(Cl)c1)N1CCS(=O)(=O)c2ccccc21 [Entry 53] | ≥ 10 |
| CC(C)(C)NC(=O)N1CCN(C(=O)Nc2ccc(F)c(Cl)c2)c2ccccc21 [Entry 54] | ≥ 10 |
| O=C1CN(C(=O)Nc2ccc(F)c(Cl)c2)C2CCCCC2N1 (centres unmarked) [Entry 56] | ≥ 10 |
| O=C(Nc1cccc(Cl)c1)N1CCN(C(=O)Nc2ccc(F)c(Cl)c2)c2ccccc21 [Entry 57] | 0.65 |
| O=C(Nc1cc(Cl)ccc1F)N1CCNc2ccccc21 [Entry 58] | 0.77 |
| O=C(Nc1cc(F)c(F)c(F)c1)N1CCN(C(=O)Nc2cc(F)c(F)c(F)c2)c2ccccc21 [Entry 59] | 1.12 |
| NC(=O)C1CN(C(=O)Nc2ccc(F)c(Cl)c2)c2ccccc2N1 (centres unmarked) [Entry 62] | ≥ 10 |
| O=C(Nc1ccc(F)c(Cl)c1)N1c2ccccc2NCC1c1ccccc1 (centres unmarked) [Entry 63] | 0.78 |
| CC1CNc2ccccc2N1C(=O)Nc1ccc(F)c(Cl)c1 (centres unmarked) [Entry 64] | 4.38 |

| Compound | EC50 [µM] |
| --- | --- |
| CC1CN(C(=O)Nc2ccc(F)c(Cl)c2)c2ccccc2N1C(=O)Nc1ccc(F)c(Cl)c1 (centres unmarked) [Entry 65] | 1.3 |
| CC(C)C1CN(C(=O)Nc2ccc(F)c(Cl)c2)c2ccccc2N1C(=O)NCc1ccc(F)c(F)c1 (centres unmarked) [Entry 66] | 1.66 |
| O=C(Nc1ccc(F)c(Cl)c1)N1CC(CN2CCOCC2)N(C(=O)Nc2ccc(F)c(Cl)c2)c2ccccc21 (centres unmarked) [Entry 67] | 2.03 |
| O=C(Nc1ccc(F)c(Cl)c1)N1CC(CN2CCC(O)CC2)N(C(=O)Nc2ccc(F)c(Cl)c2)c2ccccc21 (centres unmarked) [Entry 68] | ≥ 10 |
| O=C(Nc1ccc(F)c(Cl)c1)N1CC(CN2CCC(F)(F)C2)N(C(=O)Nc2ccc(F)c(Cl)c2)c2ccccc21 (centres unmarked) [Entry 69] | 0.65 |
| CN1CCN(CC2CN(C(=O)Nc3ccc(F)c(Cl)c3)c3ccccc3N2C(=O)Nc2ccc(F)c(Cl)c2)CC1 (centres unmarked) [Entry 70] | ≥ 10 |
| O=C(Nc1ccc(F)c(Cl)c1)N1CC(CN2CCCC(F)(F)C2)N(C(=O)Nc2ccc(F)c(Cl)c2)c2ccccc21 (centres unmarked) [Entry 72] | 1.23 |
| O=C1CC(c2ccccc2)N(C(=O)Nc2ccc(F)c(Cl)c2)c2ccccc21 (centres unmarked) [Entry 73] | 2.89 |
| O=C(Nc1ccc(F)c(Cl)c1)N1CC(CN2CCC(F)(F)C2)Nc2ccccc21 (centres unmarked) [Entry 76] | 5.09 |
| O=C(Nc1ccc(F)c(Cl)c1)N1c2ccccc2NCC1CN1CCC(F)(F)CC1 (centres unmarked) [Entry 77] | 0.28 |
| O=C(Nc1ccc(F)c(Cl)c1)N1CC(CN2CCC(F)(F)CC2)Nc2ccccc21 (centres unmarked) [Entry 78] | 4.32 |
| O=C(Nc1ccc(F)c(Cl)c1)N1c2ccccc2NCC1CN1CCC(F)(F)C1 (centres unmarked) [Entry 79] | 1.7 |
| CC(C)C1CNc2ccccc2N1C(=O)Nc1ccc(F)c(Cl)c1 (centres unmarked) [Entry 81] | 3.5 |
| O=C(Nc1ccc(F)c(Cl)c1)N1CCNc2cc(F)c(F)cc21 [Entry 82] | 0.61 |
| O=C(Nc1ccc(F)c(Cl)c1)N1CCN(C(=O)Nc2ccc(F)c(Cl)c2)c2cc(F)c(F)cc21 [Entry 83] | 1.18 |
| O=C1CC(c2ccc(F)cc2)N(C(=O)Nc2ccc(F)c(Cl)c2)c2ccccc21 (centres unmarked) [Entry 84] | 2.37 |
| O=C1CCN(C(=O)Nc2ccc(F)c(Cl)c2)c2ccc(Br)cc21 [Entry 85] | ≥ 10 |
| O=C1CCN(C(=O)Nc2ccc(F)c(Cl)c2)c2ccc(Cl)cc21 [Entry 86] | 4.83 |
| O=C(Nc1ccc(F)c(Cl)c1)N1CCNc2cc(OCc3ccccc3)ccc21 [Entry 87] | 2.82 |
| O=C(Nc1ccc(F)c(Cl)c1)N1C(c2ccccc2)CN[C@H]2CCCC[C@@H]21 (some centres unmarked) [Entry 88] | ≥ 10 |
| O=C(Nc1ccc(F)c(Cl)c1)N1c2ccccc2NCC1CN1CCOCC1 (centres unmarked) [Entry 89] | 7.3 |
| COC(=O)C1COCCN1CC1CNc2ccccc2N1C(=O)Nc1ccc(F)c(Cl)c1 (centres unmarked) [Entry 90] | 2.2 |
| O=C(O)C1COCCN1CC1CNc2ccccc2N1C(=O)Nc1ccc(F)c(Cl)c1 (centres unmarked) [Entry 91] | ≥ 10 |
| O=C(Nc1ccc(F)c(Cl)c1)N1CC(CN2CCOCC2)Nc2ccccc21 (centres unmarked) [Entry 96] | ≥ 10 |
| COC(=O)[C@H]1CC(F)(F)CN1CC1CNc2ccccc2N1C(=O)Nc1ccc(F)c(Cl)c1 (some centres unmarked) [Entry 97] | ≥ 10 |
| O=C(O)[C@H]1CC(F)(F)CN1CC1CNc2ccccc2N1C(=O)Nc1ccc(F)c(Cl)c1 (some centres unmarked) [Entry 98] | ≥ 10 |
